Experimental data reported in patent US20230055237A1, “COMPOUNDS AND METHODS FOR THE TREATMENT OF CYSTIC FIBROSIS” (Flatley Discovery Lab, LLC, priority 2019, published 2023).

Target: T1, CFTR (Homo sapiens, UniProt P13569, DEL508-508)
T1 construct: Primary CF airway epithelial cells were obtained from the UNC Cystic Fibrosis Tissue Procurement and Cell Culture Core; host or cells: primary CF airway epithelial cells, differentiated at the air-liquid interface
Experiment: Equivalent current assay in primary CF airway epithelial cells (NAUC, combination with 1st site corrector FDL169 or VX-809)
Format: cell-based
Conditions: 37° C., 24 h; for Nauc @ 10 μM: test compound 10 μM in combination with 1st site corrector VX-809 (3 μM)

[1] = test compound 1 μM in combination with 1st site corrector VX-809 (3 μM)
[2] = test compound 3 μM in combination with 1st site corrector VX-809 (3 μM)

T1 sequence (P13569 with tags, fused parts or gaps DEL508-508): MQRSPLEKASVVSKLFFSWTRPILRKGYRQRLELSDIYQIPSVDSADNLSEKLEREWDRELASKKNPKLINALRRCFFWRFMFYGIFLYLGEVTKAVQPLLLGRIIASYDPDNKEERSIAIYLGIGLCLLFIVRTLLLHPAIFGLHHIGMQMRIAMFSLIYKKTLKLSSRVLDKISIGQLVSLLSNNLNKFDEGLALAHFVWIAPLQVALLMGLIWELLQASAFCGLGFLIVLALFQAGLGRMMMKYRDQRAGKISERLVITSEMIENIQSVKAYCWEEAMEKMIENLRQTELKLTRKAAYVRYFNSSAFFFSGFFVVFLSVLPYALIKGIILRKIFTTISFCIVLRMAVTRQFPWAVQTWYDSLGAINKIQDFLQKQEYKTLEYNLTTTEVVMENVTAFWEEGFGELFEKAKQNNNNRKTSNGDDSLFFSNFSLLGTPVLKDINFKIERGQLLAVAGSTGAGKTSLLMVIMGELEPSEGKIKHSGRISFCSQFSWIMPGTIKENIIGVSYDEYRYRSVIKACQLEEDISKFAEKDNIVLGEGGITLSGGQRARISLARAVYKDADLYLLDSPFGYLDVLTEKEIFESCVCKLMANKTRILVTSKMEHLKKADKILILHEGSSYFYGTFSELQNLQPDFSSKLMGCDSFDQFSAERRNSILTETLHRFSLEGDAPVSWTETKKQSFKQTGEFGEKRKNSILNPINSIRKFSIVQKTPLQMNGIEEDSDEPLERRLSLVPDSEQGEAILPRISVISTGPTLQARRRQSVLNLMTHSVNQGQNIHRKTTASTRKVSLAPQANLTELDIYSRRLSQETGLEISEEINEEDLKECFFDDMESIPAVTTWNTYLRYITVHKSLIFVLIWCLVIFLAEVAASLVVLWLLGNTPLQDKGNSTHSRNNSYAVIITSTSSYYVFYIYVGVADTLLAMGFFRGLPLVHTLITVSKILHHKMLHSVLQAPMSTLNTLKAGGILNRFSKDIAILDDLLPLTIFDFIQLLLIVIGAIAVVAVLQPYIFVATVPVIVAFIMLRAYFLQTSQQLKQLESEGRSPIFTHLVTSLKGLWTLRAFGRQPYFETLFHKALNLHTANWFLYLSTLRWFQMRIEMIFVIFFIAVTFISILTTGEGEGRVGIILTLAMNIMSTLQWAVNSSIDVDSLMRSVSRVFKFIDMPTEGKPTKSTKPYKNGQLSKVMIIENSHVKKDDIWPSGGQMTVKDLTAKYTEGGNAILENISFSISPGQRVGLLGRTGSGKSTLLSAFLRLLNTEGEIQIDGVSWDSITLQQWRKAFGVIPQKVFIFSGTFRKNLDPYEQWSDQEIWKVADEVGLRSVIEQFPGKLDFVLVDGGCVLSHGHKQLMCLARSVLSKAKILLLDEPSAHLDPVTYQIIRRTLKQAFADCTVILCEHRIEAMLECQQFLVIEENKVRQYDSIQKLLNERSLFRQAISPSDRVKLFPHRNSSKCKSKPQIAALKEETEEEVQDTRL

With CN(O)C(=O)[C@H]1[C@@H](C(=O)N(C)c2cc(Cl)cc(Cl)c2)[C@H]2CC(F)(F)CN2[C@]12C(=O)Nc1c(Cl)cc(Cl)cc12 [Example 260a, (1′R,2′S,3R,7a′R)-5,7-dichloro-N1′-(3,5-dichlorophenyl)-6′,6′-difluoro-N2′-hydroxy-N1′,N2′-dimethyl-2-oxo-1′,2′,5′,6′,7′,7a′-hexahydrospiro[indoline-3,3′-pyrrolizine]-1′,2′-dicarboxamide] the “Nauc @ 1 μM” value [1] was “+ (NAUC “+” refers to an observed NAUC <140% of positive control)” and the “Nauc @ 3 μM” value [2] was “+ (NAUC “+” refers to an observed NAUC <140% of positive control)”.
In the case of CN(O)C(=O)[C@@H]1[C@@H](C(=O)N(C)c2cc(Cl)cc(Cl)c2)[C@H]2CC(F)(F)CN2[C@]12C(=O)Nc1c(Cl)cc(Cl)cc12 [Example 260b, (1′R,2′R,3R,7a′R)-5,7-dichloro-N1′-(3,5-dichlorophenyl)-6′,6′-difluoro-N2′-hydroxy-N1′,N2′-dimethyl-2-oxo-1′,2′,5′,6′,7′,7a′-hexahydrospiro[indoline-3,3′-pyrrolizine]-1′,2′-dicarboxamide], the “Nauc @ 1 μM” value [1] is reported as “+ (NAUC “+” refers to an observed NAUC <140% of positive control)”, the “Nauc @ 3 μM” value [2] is reported as “+ (NAUC “+” refers to an observed NAUC <140% of positive control)” and the “Nauc @ 10 μM” value is reported as “+ (NAUC “+” refers to an observed NAUC <140% of positive control)”.
In the case of CN(C(=O)[C@H]1[C@H]2CC(F)(F)CN2[C@]2(C(=O)Nc3c(Cl)cc(Cl)cc32)[C@H]1C(=O)NS(=O)(=O)c1ccccc1)c1cc(Cl)cc(Cl)c1 [Example 261, (1′R,2′S,3R,7a′R)-5,7-dichloro-N1′-(3,5-dichlorophenyl)-6′,6′-difluoro-N1′-methyl-2-oxo-N2′-(phenylsulfonyl)-1′,2′,5′,6′,7′,7a′-hexahydrospiro[indoline-3,3′-pyrrolizine]-1,2′-dicarboxamide], the “Nauc @ 10 μM” value is reported as “+ (NAUC “+” refers to an observed NAUC <140% of positive control)”.
With CN(C(=O)[C@H]1[C@H]2CCCN2[C@]2(C(=O)Nc3c(Cl)cc(Cl)cc32)[C@H]1C(=O)O)c1cc(Cl)cc(Cl)c1 [Example 266] the “Nauc @ 1 μM” value [1] was “+ (NAUC “+” refers to an observed NAUC <140% of positive control)”, the “Nauc @ 3 μM” value [2] was “+++ (NAUC “+++” refers to an observed NAUC>170% of positive control)” and the “Nauc @ 10 μM” value was “+++ (NAUC “+++” refers to an observed NAUC>170% of positive control)”.
For CC(C)(C)c1cccc(C2CC2NC(=O)[C@H]2[C@H]3CC(F)(F)CN3C3(C(=O)Nc4c(Cl)cc(Cl)cc43)[C@H]2C(=O)O)c1 (stereo partly drawn) [Example 272], the “Nauc @ 1 μM” value [1] was “+ (NAUC “+” refers to an observed NAUC <140% of positive control)”, the “Nauc @ 3 μM” value [2] was “+ (NAUC “+” refers to an observed NAUC <140% of positive control)” and the “Nauc @ 10 μM” value was “++ (NAUC “++” refers to an observed NAUC 170-140% of positive control)”.
In the case of COC(=O)[C@@]1(C)[C@@H](C(=O)N(C)c2cc(Cl)cc(Cl)c2)[C@H]2CC(F)(F)CN2C12C(=O)Nc1c(Cl)cc(Cl)cc12 (stereo partly drawn) [Example 282], the “Nauc @ 1 μM” value (test compound 1 μM in combination with 1st site corrector FDL169 (3 μM)) is reported as “+ (NAUC “+” refers to an observed NAUC <140% of positive control)” and the “Nauc @ 3 μM” value (test compound 3 μM in combination with 1st site corrector FDL169 (3 μM)) is reported as “+ (NAUC “+” refers to an observed NAUC <140% of positive control)”.
For CCN(C(=O)[C@H]1[C@H]2CC(F)(F)CN2C2(C(=O)Nc3c(Cl)cc(Cl)cc32)[C@H]1C(=O)O)c1cc(Cl)cc(Cl)c1 (stereo partly drawn) [Example 289], the “Nauc @ 1 μM” value [1] was “+++ (NAUC “+++” refers to an observed NAUC>170% of positive control)”, the “Nauc @ 3 μM” value [2] was “+++ (NAUC “+++” refers to an observed NAUC>170% of positive control)” and the “Nauc @ 10 μM” value was “+++ (NAUC “+++” refers to an observed NAUC>170% of positive control)”.
For CN(C(=O)[C@H]1[C@H]2CC(F)(F)CN2C2(C(=O)Nc3c(Cl)cc(Cl)cc32)[C@H]1C(=O)O)c1cc(Cl)c(OC(F)F)c(Cl)c1 (stereo partly drawn) [Example 290], the “Nauc @ 1 μM” value [1] was “++ (NAUC “++” refers to an observed NAUC 170-140% of positive control)”, the “Nauc @ 3 μM” value [2] was “+++ (NAUC “+++” refers to an observed NAUC>170% of positive control)” and the “Nauc @ 10 μM” value was “+++ (NAUC “+++” refers to an observed NAUC>170% of positive control)”.
COc1c(Cl)cc(N(C)C(=O)[C@H]2[C@H]3CC(F)(F)CN3C3(C(=O)Nc4c(Cl)cc(Cl)cc43)[C@H]2C(=O)O)cc1Cl (stereo partly drawn) [Example 291] was tested, and the “Nauc @ 1 μM” value [1] was “+ (NAUC “+” refers to an observed NAUC <140% of positive control)”, the “Nauc @ 3 μM” value [2] was “+ (NAUC “+” refers to an observed NAUC <140% of positive control)” and the “Nauc @ 10 μM” value was “+++ (NAUC “+++” refers to an observed NAUC>170% of positive control)”.
In the case of CN(C(=O)[C@H]1[C@H]2CC(F)(F)CN2C2(C(=O)Nc3c(Cl)cc(Cl)cc32)[C@H]1C(=O)O)c1cccc(C(F)(F)F)n1 (stereo partly drawn) [Example 292], the “Nauc @ 1 μM” value [1] is reported as “++ (NAUC “++” refers to an observed NAUC 170-140% of positive control)”, the “Nauc @ 3 μM” value [2] is reported as “+++ (NAUC “+++” refers to an observed NAUC>170% of positive control)” and the “Nauc @ 10 μM” value is reported as “+++ (NAUC “+++” refers to an observed NAUC>170% of positive control)”.
In the case of CC(C)(CO)c1cccc(CCNC(=O)[C@H]2[C@H]3CC(F)(F)CN3C3(C(=O)Nc4c(Cl)cc(Cl)cc43)[C@H]2C(=O)O)c1 (stereo partly drawn) [Example 293], the “Nauc @ 10 μM” value is reported as “+ (NAUC “+” refers to an observed NAUC <140% of positive control)”.
CC(C)(C)c1cccc(C2(CNC(=O)[C@H]3[C@H]4CC(F)(F)CN4C4(C(=O)Nc5c(Cl)cc(Cl)cc54)[C@H]3C(=O)O)CC2)c1 (stereo partly drawn) [Example 294] was tested, and the “Nauc @ 1 μM” value [1] was “+ (NAUC “+” refers to an observed NAUC <140% of positive control)”, the “Nauc @ 3 μM” value [2] was “+++ (NAUC “+++” refers to an observed NAUC>170% of positive control)” and the “Nauc @ 10 μM” value was “+++ (NAUC “+++” refers to an observed NAUC>170% of positive control)”.
